This is an account of results in ChEMBL document CHEMBL1201862, “PubChem BioAssay data set” (2004).

The target of assay [1] is Potassium channel subfamily K member 9 (Homo sapiens, UniProt Q9NPC2). Put plainly: TASK3 (KCNK9) channel inhibitors, thallium flux, SAR follow-up, selectivity assay for TASK1 inhibitor project, cell-based, FluxOR thallium flux, concentration-response (AID 652211).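 Further: potency is for inhibitors of the channel.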 The class given is functional.
In assay [2] the target is Voltage-gated inwardly rectifying potassium channel KCNH2 (Homo sapiens, UniProt Q12809). Put plainly: hERG channel inhibition in selectivity testing, SAR follow-up, selectivity assay for TASK1 inhibitor project, FluxOR thallium flux, concentration-response, CHO cells (AID 652194). Type of assay: functional, cell-based.
Chain of Voltage-gated inwardly rectifying potassium channel KCNH2 (Q12809 whole entry): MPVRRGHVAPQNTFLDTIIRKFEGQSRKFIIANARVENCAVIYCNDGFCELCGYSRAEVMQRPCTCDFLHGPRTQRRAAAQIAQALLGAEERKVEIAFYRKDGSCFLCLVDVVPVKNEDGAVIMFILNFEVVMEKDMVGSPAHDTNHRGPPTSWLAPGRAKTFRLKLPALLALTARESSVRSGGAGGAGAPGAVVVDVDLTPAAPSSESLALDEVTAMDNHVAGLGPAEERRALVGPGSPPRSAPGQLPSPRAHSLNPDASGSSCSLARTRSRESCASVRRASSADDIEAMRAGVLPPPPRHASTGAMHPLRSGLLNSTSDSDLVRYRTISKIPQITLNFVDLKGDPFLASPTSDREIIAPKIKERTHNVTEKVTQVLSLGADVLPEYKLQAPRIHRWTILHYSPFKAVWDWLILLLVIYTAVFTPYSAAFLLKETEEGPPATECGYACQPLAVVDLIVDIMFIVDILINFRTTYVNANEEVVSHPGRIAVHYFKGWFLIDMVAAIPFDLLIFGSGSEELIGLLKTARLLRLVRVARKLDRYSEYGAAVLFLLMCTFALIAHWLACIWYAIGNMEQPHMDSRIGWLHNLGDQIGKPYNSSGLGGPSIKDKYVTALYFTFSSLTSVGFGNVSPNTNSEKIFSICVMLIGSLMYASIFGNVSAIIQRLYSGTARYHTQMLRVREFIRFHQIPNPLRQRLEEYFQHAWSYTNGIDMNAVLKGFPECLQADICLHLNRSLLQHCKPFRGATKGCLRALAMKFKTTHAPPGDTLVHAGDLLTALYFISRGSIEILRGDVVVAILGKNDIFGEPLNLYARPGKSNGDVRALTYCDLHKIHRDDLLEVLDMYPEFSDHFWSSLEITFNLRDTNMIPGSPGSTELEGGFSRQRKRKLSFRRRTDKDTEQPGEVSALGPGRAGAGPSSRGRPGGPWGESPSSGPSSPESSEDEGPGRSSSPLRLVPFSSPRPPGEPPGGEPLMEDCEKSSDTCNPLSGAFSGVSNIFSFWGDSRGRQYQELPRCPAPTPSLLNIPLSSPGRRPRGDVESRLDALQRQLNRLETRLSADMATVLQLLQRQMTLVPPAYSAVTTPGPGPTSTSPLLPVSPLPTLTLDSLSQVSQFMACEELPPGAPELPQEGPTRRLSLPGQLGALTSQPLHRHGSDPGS
The target of assay [3] is Potassium channel subfamily K member 3 (Homo sapiens, UniProt O14649). In words: TASK1 (KCNK3) potassium channel inhibitors, SAR follow-up, CHO cells, FluxOR thallium flux (AID 652212). Type of assay: functional.
Chain of Potassium channel subfamily K member 3 (Homo sapiens, UniProt O14649) (O14649 whole entry): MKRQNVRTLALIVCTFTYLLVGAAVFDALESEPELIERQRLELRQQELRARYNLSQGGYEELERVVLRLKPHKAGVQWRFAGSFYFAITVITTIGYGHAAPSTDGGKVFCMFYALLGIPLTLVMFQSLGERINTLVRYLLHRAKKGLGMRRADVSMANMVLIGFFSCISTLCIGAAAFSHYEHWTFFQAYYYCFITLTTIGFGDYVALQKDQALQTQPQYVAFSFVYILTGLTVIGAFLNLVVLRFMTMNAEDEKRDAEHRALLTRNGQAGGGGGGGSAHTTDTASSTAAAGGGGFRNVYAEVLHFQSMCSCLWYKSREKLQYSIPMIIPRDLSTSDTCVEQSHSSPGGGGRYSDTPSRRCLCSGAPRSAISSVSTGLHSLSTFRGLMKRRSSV
The next assay addresses NS3 (Hepatitis C virus, UniProt A3EZJ3). Put plainly: HCV NS3 helicase inhibitor potency, dose response, biochemical, fluorescence polarization, ChemBridge library (AID 743264).
The target in a further assay is Beta-galactosidase (Escherichia coli, UniProt Q8VNN2). Put plainly: Dose response counterscreen for EBI2 assay utilizing the enzyme, b-galactosidase. The class given is functional.
Chain of Beta-galactosidase (Q8VNN2 whole entry): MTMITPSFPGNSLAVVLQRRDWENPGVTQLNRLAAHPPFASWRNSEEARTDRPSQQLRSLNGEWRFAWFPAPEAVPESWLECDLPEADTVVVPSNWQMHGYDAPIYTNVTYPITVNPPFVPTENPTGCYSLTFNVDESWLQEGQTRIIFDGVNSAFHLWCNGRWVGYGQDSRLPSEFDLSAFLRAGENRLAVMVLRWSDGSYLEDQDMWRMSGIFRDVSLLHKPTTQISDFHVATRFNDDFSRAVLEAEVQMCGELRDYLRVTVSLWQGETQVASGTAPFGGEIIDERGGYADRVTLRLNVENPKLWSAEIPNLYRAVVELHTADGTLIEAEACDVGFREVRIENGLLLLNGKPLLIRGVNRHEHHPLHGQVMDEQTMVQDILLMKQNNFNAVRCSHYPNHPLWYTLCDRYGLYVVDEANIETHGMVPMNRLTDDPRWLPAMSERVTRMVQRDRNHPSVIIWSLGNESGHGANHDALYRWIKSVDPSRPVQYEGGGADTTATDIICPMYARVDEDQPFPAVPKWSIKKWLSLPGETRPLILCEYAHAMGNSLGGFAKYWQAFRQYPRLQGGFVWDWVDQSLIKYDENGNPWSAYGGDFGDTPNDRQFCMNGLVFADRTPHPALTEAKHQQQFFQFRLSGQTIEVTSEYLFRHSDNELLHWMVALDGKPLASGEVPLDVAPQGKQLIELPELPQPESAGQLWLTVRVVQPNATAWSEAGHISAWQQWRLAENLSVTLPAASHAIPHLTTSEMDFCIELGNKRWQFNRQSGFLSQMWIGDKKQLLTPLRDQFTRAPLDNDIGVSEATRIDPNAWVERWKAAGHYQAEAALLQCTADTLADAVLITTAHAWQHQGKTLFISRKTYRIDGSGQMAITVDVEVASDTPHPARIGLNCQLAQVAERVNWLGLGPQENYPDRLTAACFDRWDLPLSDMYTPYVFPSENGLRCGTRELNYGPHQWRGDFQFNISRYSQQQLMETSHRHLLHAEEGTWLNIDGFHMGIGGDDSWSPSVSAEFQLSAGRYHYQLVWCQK
Assay [4] is described as follows: miR-122 activators in hepatoma reporter cells, dose response, cell-based, Huh7 psiCHECK-miR122, Renilla luciferase, cherry-picked (AID 651956).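 Further: huh7 hepatoma cells stably carrying a psiCHECK-2 miR-122 sensor plasmid; renilla luciferase signal reporting endogenous miR-122 activity after 48 h compound exposure.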 Type of assay: functional.
Assay [5] can be described thus: HEK293T cytotoxicity, dose response, cytotoxicity control for miR-122 modulator project, cell-based, inhibitor set, cherry-pick, set 2 (AID 720697). The class given is functional.
For assay [6], the target named is Potassium channel subfamily K member 3 (Rattus norvegicus, UniProt O54912). In words: SAR analysis for the identification of selective inhibitors of the two-pore domain potassium channel TASK1(KCNK3):Automated Electrophysiology. Type of assay: functional.
Chain of Potassium channel subfamily K member 3 (Rattus norvegicus, UniProt O54912) (O54912 whole entry, the tested form may be a part): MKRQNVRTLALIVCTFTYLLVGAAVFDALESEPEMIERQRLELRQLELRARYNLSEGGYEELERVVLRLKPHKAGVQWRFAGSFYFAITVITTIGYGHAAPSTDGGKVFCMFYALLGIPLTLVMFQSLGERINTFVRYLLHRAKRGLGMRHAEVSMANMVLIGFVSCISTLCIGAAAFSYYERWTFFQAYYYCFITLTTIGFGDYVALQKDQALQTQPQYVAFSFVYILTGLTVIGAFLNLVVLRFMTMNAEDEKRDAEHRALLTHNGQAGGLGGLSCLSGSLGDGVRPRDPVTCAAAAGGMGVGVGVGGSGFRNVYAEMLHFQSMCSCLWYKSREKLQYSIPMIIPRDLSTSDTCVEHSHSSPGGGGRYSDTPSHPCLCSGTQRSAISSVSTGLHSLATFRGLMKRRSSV
Assay [7] deals with T1, Bcl-2-related protein A1 (Mus musculus, UniProt Q07440).
T1 sequence (Q07440 whole entry): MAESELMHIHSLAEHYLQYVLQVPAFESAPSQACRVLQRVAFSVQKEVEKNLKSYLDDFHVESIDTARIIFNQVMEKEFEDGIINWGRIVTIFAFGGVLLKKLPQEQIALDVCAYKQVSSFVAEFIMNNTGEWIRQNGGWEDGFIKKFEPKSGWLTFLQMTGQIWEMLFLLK
In words: Bfl-1 inhibitors, primary screen, biochemical, fluorescence polarization, FITC-Bid, mouse (AID 432).

For assay [8], the target named is Glyceraldehyde-3-phosphate dehydrogenase (Homo sapiens, UniProt P04406).
Chain of Glyceraldehyde-3-phosphate dehydrogenase (P04406 whole entry): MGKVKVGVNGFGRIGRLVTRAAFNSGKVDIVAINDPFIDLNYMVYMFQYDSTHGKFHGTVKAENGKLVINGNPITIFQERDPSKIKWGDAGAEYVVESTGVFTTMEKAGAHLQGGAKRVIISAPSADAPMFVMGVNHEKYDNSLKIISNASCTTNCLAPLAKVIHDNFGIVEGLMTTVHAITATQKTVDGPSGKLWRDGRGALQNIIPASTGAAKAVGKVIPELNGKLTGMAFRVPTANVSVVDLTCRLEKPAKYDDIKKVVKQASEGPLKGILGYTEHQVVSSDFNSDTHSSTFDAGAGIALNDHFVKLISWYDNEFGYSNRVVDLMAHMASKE
A short description of assay [9]: cytotoxicity in HPDE-C7 cells, cell-based, fluorescence, HTS (AID 430). Type of assay: functional. As to conditions: Homo sapiens.
Assay [10] has as its target T1, Bcl-2-related protein A1. Put plainly: Bfl-1 inhibitors blocking BH3 peptide binding, confirmation, biochemical, TR-FRET, mouse Bfl-1 (AID 621).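 Further: TR-FRET binding of GST-Bfl-1 to FITC-labelled Bid peptide via terbium antibody.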
Assay [11] is described as follows: cytotoxicity in KRAS-transformed pancreatic duct cells, primary screen, cell-based, fluorescence, HTS (AID 431).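 Further: cell line used: HPDE-C7K.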 As to conditions: Homo sapiens. Type of assay: functional.
The target in assay [12] is T1, Bcl-2-related protein A1. Put plainly: Bfl-1 binding inhibitors, SAR follow-up, biochemical, fluorescence polarization (AID 1070).
The nature of assay [13]: growth suppression of PTEN-null colon cells, dose response, cell-based, HCT116 PTEN knockout (AID 1047).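 Further: HCT116 colon tumor cells with PTEN knocked out; cells exposed to compound for 60 hours before readout; potency for loss of cell viability measured by luminescence.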 The class given is functional.
Assay [14] has as its target T2, Heat shock factor protein 1 (Mus musculus, UniProt P38532).
T2 sequence (P38532 whole entry): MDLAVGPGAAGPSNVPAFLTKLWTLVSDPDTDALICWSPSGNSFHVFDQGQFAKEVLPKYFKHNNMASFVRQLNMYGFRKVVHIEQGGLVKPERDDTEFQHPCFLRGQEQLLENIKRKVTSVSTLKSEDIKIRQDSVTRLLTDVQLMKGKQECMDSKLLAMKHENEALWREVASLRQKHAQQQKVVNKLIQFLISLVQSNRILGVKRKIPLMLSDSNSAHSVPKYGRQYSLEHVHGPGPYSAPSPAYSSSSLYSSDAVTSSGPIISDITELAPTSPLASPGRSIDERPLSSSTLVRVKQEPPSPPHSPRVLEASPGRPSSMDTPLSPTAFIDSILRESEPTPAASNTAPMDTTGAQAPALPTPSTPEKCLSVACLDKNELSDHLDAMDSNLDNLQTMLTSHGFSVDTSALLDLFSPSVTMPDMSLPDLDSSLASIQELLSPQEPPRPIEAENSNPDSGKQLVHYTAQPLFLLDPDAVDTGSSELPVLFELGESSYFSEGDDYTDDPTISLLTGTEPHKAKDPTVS
In words: HSF1 potentiators in luciferase reporter cells, confirmation, cell-based, NIH3T3, luminescence, dose retest (AID 435004).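 Further: stress induced by proteasome inhibitor MG132 added 30 min after compound; luciferase reporter driven by HSF1 response element in NIH3T3 cells; actives raise luminescence as potentiators of the MG132 stress response.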 Type of assay: functional.

Assay [15] can be described thus: HEK293T cell cytotoxicity, dose response, cytotoxicity control for HIV Vif inhibitor project, cherry-picks (AID 652208). Type of assay: functional, cell-based.
A short description of assay [16]: Luminescence Cell-Based Dose Confirmation HTS to Identify Activators of 5'UTR Stem-Loop Driven Alpha-Synuclein mRNA Translation in H4 Neuroglioblastoma Cells. [Related pubchem assays: 1829 (Project Summary), 1814 (Primary HTS)]. The class given is functional.
Assay [17] in a line: Luminescence Cell-Based Dose Response HTS to Identify Activators of Luciferase Translation or Activity in H4 […] Cells. [Related pubchem assays: 1829 (Project Summary), 1814 (Primary HTS)]. Type of assay: functional.
In assay [18] the target is T3, Neuropeptide Y receptor type 1 (Homo sapiens, UniProt P25929).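 Further: HEK293 cells with a CNG channel challenged with NPY then isoproterenol; potency as antagonist that reverses NPY suppression of cAMP signal.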
T3 sequence (P25929 whole entry): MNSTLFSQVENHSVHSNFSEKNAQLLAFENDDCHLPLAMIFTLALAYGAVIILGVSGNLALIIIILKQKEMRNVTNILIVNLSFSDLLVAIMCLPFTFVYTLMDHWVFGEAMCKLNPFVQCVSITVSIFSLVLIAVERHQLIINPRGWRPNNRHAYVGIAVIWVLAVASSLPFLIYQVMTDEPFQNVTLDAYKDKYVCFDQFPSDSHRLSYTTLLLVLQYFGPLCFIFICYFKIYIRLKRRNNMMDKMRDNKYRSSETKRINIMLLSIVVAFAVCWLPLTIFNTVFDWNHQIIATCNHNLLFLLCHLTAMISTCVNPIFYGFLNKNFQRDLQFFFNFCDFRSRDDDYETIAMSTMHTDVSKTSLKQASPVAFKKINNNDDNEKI
The class given is functional.

Assay [19] can be described thus: cells. Type of assay: functional, cell-based.
The subject of another assay is H4. Put plainly: Luminescence Cell-Based Dose Response HTS to Identify Activators of 5'UTR Stem-Loop Driven Prion Protein mRNA Translation in H4 Neuroglioblastoma Cells. [Related pubchem assays: 1829 (Project Summary), 1814 (Primary HTS)]. The class given is functional. As to conditions: Homo sapiens.
A short description of assay [20]: cells. Type of assay: functional, cell-based. The source holds these as a separate data set.
Assay [21] addresses T4, Neuropeptide Y receptor type 2 (Homo sapiens, UniProt P49146).
T4 sequence (P49146 whole entry): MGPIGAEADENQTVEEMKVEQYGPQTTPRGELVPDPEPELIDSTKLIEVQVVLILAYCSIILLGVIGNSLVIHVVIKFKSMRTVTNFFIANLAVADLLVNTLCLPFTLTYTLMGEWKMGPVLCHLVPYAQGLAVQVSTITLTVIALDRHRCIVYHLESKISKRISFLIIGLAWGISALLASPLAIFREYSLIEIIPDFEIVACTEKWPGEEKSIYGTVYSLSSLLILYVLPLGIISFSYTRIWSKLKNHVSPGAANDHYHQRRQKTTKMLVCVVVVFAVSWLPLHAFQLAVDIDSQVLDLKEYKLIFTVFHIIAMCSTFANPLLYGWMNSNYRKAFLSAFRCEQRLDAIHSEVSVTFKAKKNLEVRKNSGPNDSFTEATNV
The class given is functional, cell-based.

Assay [22] concerns the target SWI/SNF-related matrix-associated actin-dependent regulator of chromatin subfamily A member 2 (Homo sapiens, UniProt P51531). In words: Luminescence-based cell-based high throughput dose response assay to identify activators of the function of SWI/SNF related, matrix associated, actin dependent regulator of chromatin, subfamily a, member 2 (SMARCA2, BRM). Type of assay: functional.

Assay [23] in a line: Counterscreen for activators of the function of SWI/SNF related, matrix associated, actin dependent regulator of chromatin, subfamily a, member 2 (SMARCA2, BRM): Luminescence-based cell-based high throughput dose response assay to identify non-selective compounds using the VP16 reporter assay. The class given is functional.
Assay [24] concerns the target Protein disulfide-isomerase (Homo sapiens, UniProt P07237). Put plainly: PDI inhibitors, insulin turbidity readout, confirmation, biochemical, dry powder samples, set 2 (AID 652146).
The nature of assay [25]: Counterscreen for […] of the human trace amine associated receptor 1 (TAAR1): Fluorescence-based cell-based high throughput dose response assay to identify nonselective Ga16 agonists. Type of assay: functional.
Assay [26] addresses T5, Trace amine-associated receptor 1 (Homo sapiens, UniProt Q96RJ0).
T5 sequence (Q96RJ0 whole entry): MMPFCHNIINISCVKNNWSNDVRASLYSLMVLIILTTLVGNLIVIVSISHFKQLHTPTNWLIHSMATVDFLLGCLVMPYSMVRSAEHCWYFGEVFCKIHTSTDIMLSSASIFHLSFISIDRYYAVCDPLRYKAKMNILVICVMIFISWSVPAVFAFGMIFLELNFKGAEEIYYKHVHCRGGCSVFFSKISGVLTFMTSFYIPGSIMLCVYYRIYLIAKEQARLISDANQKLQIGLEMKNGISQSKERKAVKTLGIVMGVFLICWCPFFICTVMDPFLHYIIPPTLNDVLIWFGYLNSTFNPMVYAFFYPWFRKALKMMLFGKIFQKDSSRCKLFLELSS
Put plainly: Fluorescence-based cell-based high throughput dose response assay to identify antagonists of the human trace amine associated receptor 1 (TAAR1). Type of assay: functional.

Assay [27] can be described thus: Counterscreen for antagonists of the human trace amine associated receptor 1 (hTAAR1): Fluorescence-based cell-based high throughput dose response assay to identify nonselective Ga16 antagonists. The class given is functional.
Assay [28] addresses T5, Trace amine-associated receptor 1. In words: Counterscreen for antagonists of the human trace amine associated receptor 1 (hTAAR1): Fluorescence-based cell-based high throughput dose response assay to identify TAAR1 Agonists. The class given is functional.
Assay [29] can be described thus: cells. Type of assay: functional, cell-based. This is another data set of the same source.
Assay [30] concerns the target T5, Trace amine-associated receptor 1. In words: Fluorescence-based cell-based high throughput dose response assay to identify agonists of the human trace amine associated receptor 1 (TAAR1). Type of assay: functional.
Assay [31] shares this target. Put plainly: Counterscreen for agonists of the human trace amine associated receptor 1 (hTAAR1): Fluorescence-based cell-based high throughput dose response assay to identify hTAAR1 agonist that also desensitize TAAR1 receptor response. Type of assay: functional.
Assay [32] is described as follows: cells. Type of assay: functional, cell-based. The source holds these as a separate data set.

Molecules are shown by their SMILES. “And” between values parts separate entries of the source, which are not always exact repeats. Equal entries are not always repeated. The source made the active and inactive calls.

Chain of Potassium channel subfamily K member 9 (Q9NPC2 whole entry): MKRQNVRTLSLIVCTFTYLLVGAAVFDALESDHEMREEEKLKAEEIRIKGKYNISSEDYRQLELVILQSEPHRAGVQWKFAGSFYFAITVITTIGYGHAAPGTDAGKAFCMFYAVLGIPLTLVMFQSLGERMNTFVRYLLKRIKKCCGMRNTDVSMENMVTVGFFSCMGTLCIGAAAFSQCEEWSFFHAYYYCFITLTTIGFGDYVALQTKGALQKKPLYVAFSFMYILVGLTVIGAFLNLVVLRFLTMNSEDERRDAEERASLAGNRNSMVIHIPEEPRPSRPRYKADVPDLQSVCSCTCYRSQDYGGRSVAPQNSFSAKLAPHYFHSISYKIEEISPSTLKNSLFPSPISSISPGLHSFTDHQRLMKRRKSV
Chain of Protein disulfide-isomerase (P07237 whole entry): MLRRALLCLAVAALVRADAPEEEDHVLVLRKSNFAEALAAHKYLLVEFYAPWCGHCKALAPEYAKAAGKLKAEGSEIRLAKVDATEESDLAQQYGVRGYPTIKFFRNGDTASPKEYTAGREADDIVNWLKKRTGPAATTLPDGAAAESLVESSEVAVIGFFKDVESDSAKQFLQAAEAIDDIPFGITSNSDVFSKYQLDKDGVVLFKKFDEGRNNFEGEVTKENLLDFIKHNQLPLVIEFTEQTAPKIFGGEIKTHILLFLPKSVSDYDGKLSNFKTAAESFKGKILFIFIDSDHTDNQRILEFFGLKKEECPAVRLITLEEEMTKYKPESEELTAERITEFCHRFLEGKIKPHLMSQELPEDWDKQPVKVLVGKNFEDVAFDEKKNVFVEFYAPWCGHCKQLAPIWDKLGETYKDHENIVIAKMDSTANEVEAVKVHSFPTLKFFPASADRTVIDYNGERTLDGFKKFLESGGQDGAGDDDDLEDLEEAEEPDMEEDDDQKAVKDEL
Chain of NS3 (A3EZJ3 whole entry): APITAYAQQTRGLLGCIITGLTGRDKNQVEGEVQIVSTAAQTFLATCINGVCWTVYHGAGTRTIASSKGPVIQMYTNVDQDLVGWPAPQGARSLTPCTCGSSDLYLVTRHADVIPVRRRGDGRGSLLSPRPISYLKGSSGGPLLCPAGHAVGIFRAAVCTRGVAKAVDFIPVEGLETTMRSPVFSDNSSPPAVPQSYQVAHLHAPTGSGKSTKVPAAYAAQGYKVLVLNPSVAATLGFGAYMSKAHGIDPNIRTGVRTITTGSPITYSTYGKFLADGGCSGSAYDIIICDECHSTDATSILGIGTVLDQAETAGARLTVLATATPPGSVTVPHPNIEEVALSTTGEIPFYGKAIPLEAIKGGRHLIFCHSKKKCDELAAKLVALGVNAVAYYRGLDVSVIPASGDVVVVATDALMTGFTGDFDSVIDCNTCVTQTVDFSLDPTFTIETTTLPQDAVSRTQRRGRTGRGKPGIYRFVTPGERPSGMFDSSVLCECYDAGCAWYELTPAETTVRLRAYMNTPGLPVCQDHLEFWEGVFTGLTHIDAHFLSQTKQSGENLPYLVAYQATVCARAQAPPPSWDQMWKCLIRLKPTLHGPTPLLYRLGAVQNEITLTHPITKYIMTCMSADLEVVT

For `COc1ccccc1NC(=O)c1cccc(NC(=O)C2CCCC2)c1`, the IC50 is 1.55 µM (active) in assay [1], 43.5 µM (active) in [2] and 0.238 µM (active) in assay [3].

Consider `Cc1ccc(N2C(=O)NC(=O)/C(=C\c3ccc(-c4ccc(Cl)c(C(=O)O)c4)o3)C2=O)cc1`, for which, at NS3, the IC50 is 133 µM (active).

As for `O=C(/C=C/c1ccc(F)cc1)N1CCN(Cc2ccccc2)CC1`, at Beta-galactosidase, the IC50 was > 80 µM (inactive).

Regarding `C[C@H]1CN([C@@H](C)CO)S(=O)(=O)c2ccc(-c3ccc(C(=O)N(C)C)cc3)cc2O[C@H]1CN(C)C(=O)C1CCC1`, the AC50 in assay [4] is 10.9 µM (active); in assay [5], 2.2 µM (active).

Turning to `Cc1cccc(C(=O)Nc2cccc(NC(=O)c3ccccc3OC(F)(F)F)c2)c1`, the results for the half-maximal inhibitory concentration (IC50) in assay [1], in assay [6] and in assay [3] were 1.05 µM (active), 0.06 µM (active) and 0.028 µM (active), respectively.

Regarding `COc1ccc(-c2cc(C(F)(F)F)nc(S(C)(=O)=O)n2)cc1OC`, the half-maximal inhibitory concentration (IC50) on Bcl-2-related protein A1 [7] was 25.4 µM (active); in assay [8], > 100 µM (not active); on Bcl-2-related protein A1 [10], 12.7 µM (active) and 4.51 µM (active); at Bcl-2-related protein A1 [12] it was 23.2 µM (active). Moreover, the EC50 in assay [9] was 4.49 µM (active); in assay [11], 3.47 µM (active); in [13] it was 32.1 µM (active); in assay [14] it was 5.47 µM (active). Further, the AC50 in assay [15] is 13.2 µM (active).

On to `O=c1c2ccccc2nc2c3ccccc3c(NCCN3CCOCC3)nn12`, for which the EC50 in assay [16] is > 120 µM (not active); in [17], 18 µM (active); in the assay “cells [19]”, > 350 µM (not active); in the assay on H4 it was > 120 µM (inconclusive); in the assay “cells [20]”, > 350 µM (not active); in assay [22] it was > 10.1 µM (inactive). The EC50 in assay [23] is > 91.2 µM (inactive). Further, the IC50 in assay [18] is 4.38 µM (active); in assay [21], > 35 µM (not active).

As for `CCOC(=O)C1(CCOc2ccccc2)CCN(Cc2ccc(OC)c(Cl)c2)CC1`, the AC50 in [24] was > 30 µM (inactive).

For `O=C(CCN1C(=O)C2C3C=CC(C3)C2C1=O)NCCc1ccccc1` (configuration not stated), the EC50 in [25] and in assay [28] was > 29.9 µM (inactive) in each case. For the same compound, the IC50 in assay [26] and in assay [27] was > 29.9 µM (inactive) throughout.

As for `CC(C)[C@H](NC(=O)CC1CCCC1)C(=O)N1CCC[C@H]1C(=O)NCCc1ccccc1Cl`, the values for the IC50 (in the assay “cells [29]”; in assay [31]) were > 29.9 µM (inactive) and 4 µM (active), respectively. For the same compound, the results for the EC50 (in [30]; in the assay “cells [32]”) were 2.01 µM (active) and > 29.9 µM (inactive), respectively.
